Here are results for 1 compound from patent publication US11931324B2, “Pharmaceutical composition for prevention or treatment of osteoarthritis comprising obtusifolin, derivative thereof, or pharmaceutically acceptable salt thereof as active ingredient” (KOREA INSTITUTE OF SCIENCE AND TECHNOLOGY, priority 2021, dated 2024).

In one data set the test system is primary chondrocytes. Put plainly: lactate dehydrogenase (LDH) cytotoxicity assay. Format: cell-based, mouse. The following applies: 24 hours, concentration of about 200 μM or less (FIG. 1). The method, then: (§1) Mouse chondrocytes isolated from femur and tibial plateau were obtained from ICR mice of 5-days old. Cells were cultured in Dulbecco's Modified Eagle's medium to which about 10% fetal bovine serum and about 1% penicillin/streptomycin, and then grown in an incubator under conditions maintained with about 5% CO2 and a temperature of about 37° C. C57BL/6 mice (male, 10-weeks old, weighing about 18 g to 20 g, and n=5) were purchased from DBL (Chungcheongbuk-do, South Korea). The C57BL/6 mice were housed at a temperature of about 23° C. and exposed to a light-dark cycle of about 12 hours. Food and water were provided regularly. All animal experiments were performed under the approval of the Ajou University Animal Care and Use Committee.
The primary chondrocytes were treated with obtusifolin (0 μM, about 25 μM, about 50 μM, about 100 μM, and about 200 μM) and cultured for about 24 hours. Then, the supernatant of the culture was collected and allowed for a reaction using a LDH-cytotoxicity assay kit (K311-400; BioVision). According to the recommendations provided by the kit manufacturer, values were measured.
In this experimental example, cytotoxicity of obtusifolin was measured using a lactate dehydrogenase-assay to determine whether obtusifolin affected chondrocytes. Detailed experimental methods were described in Reference Example.

Data set [1] deals with matrix metalloproteinase 3 (MMP3). Put plainly: MMP3 expression in IL-1β-treated chondrocytes (RT-PCR, qRT-PCR). It is filed as cell-based, mouse. The method, then: (§2) Interleukin 1 beta (IL-1β) purchased from GenScript (Piscataway, NJ, USA) was dissolved in purified water. Obtusifolin and celecoxib were purchased from Sigma-Aldrich (St. Louis, MO, USA). Primary chondrocytes of the mice were cultured for 4 days under conditions of a temperature of about 37° C. and about 5% CO2. Afterwards, IL-1β (about 1 ng/mL) and either of obtusifolin or celecoxib were treated and cultured for about 24 hours. Then, the cultured chondrocytes were collected after about 5 days. To confirm the signal transduction pathway regulated by obtusifolin, the chondrocytes were pre-treated with obtusifolin or celecoxib and cultured for about 24 hours. […]
(§3) Chondrocyte RNAs were isolated using Trizol and chloroform. […] Transcription levels were quantified by qRT-PCR (ABI, Beverley, UK; StepOnePlus Real-Time PCR System). […]
(§4) In detail, chondrocytes treated with pro-inflammatory cytokine, IL-1β (about 1 ng/mL), for about 24 hours were treated with obtusifolin (about 0 μM to about 200 μM) or Celecoxib (about 50 μM). Then, in the resulting chondrocytes, the expression levels of matrix metalloproteinase 3 (MMP3), matrix metalloproteinase 13 (MMP13), and cyclooxygenase 2 (COX2) were measured by RT-PCR and qRT-PCR. In addition, the activity level of collagenase and the expression level of prostaglandin (PGE2) were measured. […]

In data set [2] the test system is matrix metalloproteinase 13 (MMP13). Kind of data set: MMP13 expression in IL-1β-treated chondrocytes (RT-PCR, qRT-PCR). It is filed as cell-based, mouse. The method, then:
as §2, §3, §4

The next data set deals with cyclooxygenase 2 (COX2). Kind of data set: COX2 expression in IL-1β-treated chondrocytes (RT-PCR, qRT-PCR). Format: cell-based, mouse. The method, then: as §2, §3, §4
(In general: In qPCR the cycle at which signal appears reflects the starting amount.)

The next data set deals with collagenase. Kind of data set: total collagenase activity of IL-1β-treated chondrocytes (EnzCheck Gelatinase/Collagenase Assay kit). Format: cell-based, mouse. The method, then:
(§5) PGE2 production was evaluated using a PGE2 Immunoassay Kit (R & D System, Minneapolis, Minnesota, USA). Primary articular chondrocytes of mouse were seeded in a 96-well plate (about 2×10^4 cells/well). The level of secreted PGE2 in the primary chondrocytes of mouse treated with obtusifolin and IL-1β (about 1 ng/mL) was measured from the […]. By using an EnzCheck Gelatinase/Collagenase Assay kit (Molecular Probes, Carlsbad, CA, USA), total collagenase activity of the articular chondrocytes cultured in a medium conditioned with obtusifolin and IL-1β (about 1 ng/mL) was measured. The collagenase activity was quantified using a VICTOR X3 microplate reader (PerkinElmer, Waltham, MA, USA) at Ex/Em=490/530 nm according to the protocol provided by the manufacturer. […] After culturing the transfected cells in a complete medium for about 24 hours, luciferase activity was evaluated using an analysis kit (Promega, Madison, WI, USA), and the evaluated activity was normalized by β-galactosidase.
(§6) In detail, chondrocytes treated with pro-inflammatory cytokine, IL-1β (about 1 ng/mL), for about 24 hours were treated with obtusifolin (about 0 μM to about 200 μM) or Celecoxib (about 50 μM). Then, in the resulting chondrocytes, the expression levels of matrix metalloproteinase 3 (MMP3), matrix metalloproteinase 13 (MMP13), and cyclooxygenase 2 (COX2) were measured by RT-PCR and qRT-PCR. […]

The test system of the next data set is prostaglandin E2 (PGE2). Kind of data set: PGE2 production in IL-1β-treated chondrocytes (PGE2 Immunoassay Kit). Format: cell-based, mouse. The method, then:
as §5, §6

The next data set concerns p65. Put plainly: p65 phosphorylation (NF-κB signal transduction) in IL-1β-treated chondrocytes, Western blotting and densitometry. It is filed as cell-based, mouse. The method, then: as §2, §3
Here, as a loading control group, Erk1/2 was used. Band intensity was quantified by densitometry (AlphaEase FC 4.0; Alpha Innotech).
In detail, the chondrocytes treated with the pro-inflammatory cytokine, IL-1β (about 1 ng/mL), were collected, and the phosphorylation levels of p38, JNK, and p65 were measured through Western blotting. […] The chondrocytes were collected after the culture, and the phosphorylation level of p65 was measured through Western blotting and densitometry. […]

Data set [3] relates to mice that have undergone DMM surgery. Kind of data set: cartilage destruction induced by DMM surgery, mouse model, oral administration. Format: in vivo. The protocol: as §1
According to a known technique, destabilization of the medial meniscus (DMM) surgery was performed on a mouse of about 10 week old to induce OA. Here, a Sham-operated mouse was used as a control group. […]
A mouse cartilage sample obtained from the mouse undergoing the DMM surgery was fixed about 4% para-formaldehyde followed by dehydration for about 2 weeks in about 0.5 mol/L EDTA (pH 8.0), to decalcify. […] The cartilage destruction was measured by Safranin O staining and scored using an Osteoarthritis Research […] International (OARSI) grading system.
Data values were expressed as mean±SEM after repeated experiments. […] Histological data were quantified based on an ordinal grading system including OARSI grades, subchondral bone plate thickness scores, and osteophyte grades, using non-parametric statistical methods. […]
In detail, the DMM surgery or shame surgery was performed on mice, and after about 4 weeks of the surgery, obtusifolin (about 10 mg/kg, about 50 mg/kg, or about 100 mg/kg) was administered to each mouse every day for 6 weeks. […] The degree of cartilage destruction was analyzed by analyzing images obtained after the staining. In detail, the OARSI grades, the degree of osteophyte formation, and a thickness of the subchondral bone were measured. […]

Where [4] appears, read: chondrocytes treated with IL-1β (about 1 ng/mL), obtusifolin about 0 μM to about 200 μM (FIGS. 2A, 2B).
Where [5] appears, read: obtusifolin about 100 μM to about 200 μM vs Celecoxib about 50 μM.
[6] abbreviates: chondrocytes treated with IL-1β (about 1 ng/mL), obtusifolin about 0 μM to about 200 μM (FIG. 2C).

`COc1c(O)c(C)cc2c1C(=O)c1c(O)cccc1C2=O` [obtusifolin]: the cytotoxicity result in the data set with primary chondrocytes was “did not exhibit cytotoxicity”. In data set [1] (setting [4]), the “expression level of MMP3” value is listed as “decreased in a dose-dependent manner”. The “effect of reducing expression of MMP3 compared with Celecoxib” value in data set [1] (setting [5]) is reported as “the same or similar level of effects as Celecoxib”. Besides, the “expression of MMP13” value in data set [2] (setting [4]) is listed as “decreased again”. Moreover, in data set [2] (setting [5]), the “effect of reducing expression of MMP13 compared with Celecoxib” value was “the same or similar level of effects as Celecoxib”. In addition, in the data set on cyclooxygenase 2 (COX2) (setting [4]), the “expression level of COX2” value was “decreased in a dose-dependent manner”. For the same compound, the “effect of reducing expression of COX2 compared with Celecoxib” value with cyclooxygenase 2 (COX2) (setting [5]) is given as “the same or similar level of effects as Celecoxib”. In addition, in the data set on collagenase (setting [6]), the activity of collagenase result was “decreased in a dose-dependent manner”. For the same compound, the “effect of reducing activity of collagenase compared with Celecoxib” value in the data set on collagenase (setting [5]) is reported as “the same or similar level of effects as Celecoxib”. Moreover, the “expression of PGE2” value with prostaglandin E2 (PGE2) (setting [6]) is on record as “decreased in a dose-dependent manner”. In the data set on prostaglandin E2 (PGE2) (setting [5]), the “effect of reducing expression of PGE2 compared with Celecoxib” value is listed as “the same or similar level of effects as Celecoxib”. In addition, the “inhibition of phosphorylation of P65 compared with Celecoxib” value in the data set with p65 (setting [5]) is reported as “the same or similar level to that of Celecoxib”. The “phosphorylation of P65” value in the data set on p65 (pre-treated 24 hours with obtusifolin about 0 μM to 200 μM, then IL-1β (about 1 ng/mL) 10 minutes, as concentration increased (FIGS. 3B, 3C)) was “the phosphorylation of P65 was inhibited”. In addition, in data set [3] (DMM surgery mice, oral about 10, 50 or 100 mg/kg every day for 6 weeks (FIG. 5C)), the formation of osteophytes result is reported as “reduced in a dose-dependent manner”. Moreover, the “degree of cartilage destruction (Safranin O staining)” value in data set [3] (DMM surgery mice, oral about 10, 50 or 100 mg/kg every day for 6 weeks from 4 weeks after surgery (FIG. 5A)) was “decreased in a dose-dependent manner”. Further, the “effects according to the dose concentration in sham surgery mice” value in data set [3] (sham surgery mice, oral about 10, 50 or 100 mg/kg every day for 6 weeks (FIGS. 5A to 5D)) was “no difference in the effects”.
